Results as given in article PMC7127027 (Bioorganic & Medicinal Chemistry Letters, 2017).

Tested on: Hela cells RCB 0007
Settings: human

Q: `O=C(/C=C/c1ccccc1)N[C@@H](c1ccccc1)[C@@H](OC(=O)c1ccccc1)C(=O)NC1CCCCC1` [Compound 4, (2R,3S)-Cyclohexyl 3-(N-cinnamoyl)amino-3-phenyl-2-benzoyloxypropanamide] was tested. Which cell death ratio did it give?
A: less than 10%
